Measurements published in article PMC10714399, “Open Source Antibiotics: Simple Diarylimidazoles Are Potent against Methicillin-Resistant Staphylococcus aureus” (ACS Infectious Diseases, 2023).
≈ marks a conversion by molar mass, not a printed value. Where two headings read alike, the source gives them in different places.

Columns and labels:
[1] = tested on: Staphylococcus aureus NCTC 13373 (mecA-positive; methicillin-resistant); experiment: In vitro antibacterial activity, MIC (UCL School of Pharmacy assay), MRSA; format: cell-based; details: for MIC: Staphylococcus aureus
Procedure: (§1) Staphylococcus aureus NCTC 13373 (mecA-positive; methicillin-resistant, NCTC 13373) was supplied by the National Collection of Type Cultures (NCTC), Public Health England, United Kingdom. Other organisms, S. aureus ATCC 25923 (methicillin-susceptible) and Enterococcus faecalis ATCC 51299 (vanA-positive; vancomycin-resistant), were obtained from the American Type Culture Collection (ATCC) via LGC Standards, UK. A suspension of each organism was prepared from an overnight plate culture (tryptone soya agar) in phosphate-buffered saline (PBS) and adjusted to an absorbance reading at 600 nm of 0.1, which is approximately equivalent to 1 × 10^8 colony-forming units (CFU) per mL. The cultures were further diluted 1:100 in isosensitest broth (Oxoid, United Kingdom) before 100 μL was used to inoculate each well of a 96-well plate that contained diluted samples of the OSA series. Compounds were evaluated over a 2-fold dilution range from 32 to 0.03 μg/mL. Stocks of the samples were prepared in 100% DMSO at […] before being diluted in isosenstitest broth. The highest concentration of DMSO present was 2%, which has been previously shown not to inhibit the growth of the microorganisms (data not shown). […] Vancomycin was used as a quality control compound.

[2] = tested on: S. aureus ATCC 25923 (methicillin-susceptible); experiment: In vitro antibacterial activity, MIC (UCL), MSSA; format: cell-based, Staphylococcus aureus; details: for MIC: Staphylococcus aureus
Procedure: as §1

[3] = tested on: Enterococcus faecalis ATCC 51299 (vanA-positive; vancomycin-resistant); experiment: In vitro antibacterial activity, MIC (UCL), VRE; format: cell-based
Procedure: as §1

[4] = UCL assay, read-out: MRSA MIC (ug/mL) (UCL)
[5] = UCL assay, read-out: MSSA MIC (ug/mL) (UCL)

Cc1ccc(C(=O)Nc2c(-c3ccccn3)nc3ccccn23)cc1 [compound 1017]
MIC ([1]; read-out: MRSA MIC): > 32 µg/mL
MIC ([2]; read-out: MSSA MIC): > 32 µg/mL

CN1CCN(c2ccc(-c3c(-c4ccccn4)nc4ccccn34)cc2)CC1 [OSA_001012]
MIC ([1]; UCL, read-out: MRSA MIC (UCL)): > 32 µg/mL
MIC ([2]; read-out: MSSA MIC (UCL)): > 32 µg/mL

CC(C)CN(c1ccc(F)cc1)c1c(-c2ccccn2)nc2ccncn12 [OSA_001039]
MIC [1, 4]: > 32 µg/mL
MIC [2, 5]: > 32 µg/mL

c1ccc(-c2nc3ncccn3c2-c2ccc3occc3c2)nc1 [compound 863]
MRSA MIC [1]: > 32 µg/mL
VRE MIC [3]: > 32 µg/mL

Cc1ccn2c(NC3CCCC3)c(-c3ccc(N(C)C)cc3)nc2c1 [compound 840]
MRSA MIC [1]: > 32 µg/mL
VRE MIC [3]: > 32 µg/mL

CSc1ccc2nc(-c3ccccn3)c(N(C)c3ccc(F)cc3)n2c1 [compound 1004]
MIC ([1]; read-out: MRSA MIC): 8 µg/mL (≈ 22 µM)
MIC ([2]; read-out: MSSA MIC): 8 µg/mL (≈ 22 µM)

N#Cc1ccc(-c2c(-c3ccccn3)nc3cccnn23)cc1 [OSA_001103]
MIC [1, 4]: > 32 µg/mL
MIC [2, 5]: > 32 µg/mL

Cc1ccc2nc(-c3ccccn3)c(Nc3ccc4c(c3)OCCO4)n2c1 [OSA_000841]
MIC ([1]; UCL, read-out: MRSA MIC (UCL)): 8 µg/mL (≈ 22.3 µM)
MIC ([3]; read-out: VRE MIC (UCL)): 16 µg/mL (≈ 44.6 µM)

Cc1ccc(-c2c(-c3ccccn3)nc3cc(C(N)=O)ccn23)cc1 [compound 1015]
MRSA MIC [1]: > 32 µg/mL
MSSA MIC [2]: > 32 µg/mL

CN(C)Cc1ccc2nc(-c3ccccn3)c(Nc3cccc(F)c3)n2c1 [OSA_000844]
MIC ([1]; UCL, read-out: MRSA MIC (UCL)): > 32 µg/mL
MIC ([3]; read-out: VRE MIC (UCL)): > 32 µg/mL

CC(C)CN(c1ccc(F)cc1)c1c(-c2ccccn2)nc2cnccn12 [compound 1035]
MIC ([1]; read-out: MRSA MIC): > 32 µg/mL
MIC ([2]; read-out: MSSA MIC): > 32 µg/mL

COc1cccn2c(N(C)c3ccc(F)cc3)c(-c3ccccn3)nc12 [compound 1001]
MIC ([1]; 16 h, read-out: MRSA MIC): 16 µg/mL (≈ 45.9 µM)
MIC ([2]; 16 h, read-out: MSSA MIC): 16 µg/mL (≈ 45.9 µM)

COCc1ccc2nc(-c3ccccn3)c(Nc3cccc(F)c3)n2c1 [OSA_000852]
MIC ([1]; UCL, read-out: MRSA MIC (UCL)): > 32 µg/mL
MIC ([3]; read-out: VRE MIC (UCL)): > 32 µg/mL

Cc1ccc(-c2c(-c3ccccn3)nc3cc(N4CCNCC4)ccn23)cc1 [OSA_001014]
MIC ([1]; UCL, read-out: MRSA MIC (UCL)): > 32 µg/mL
MIC ([2]; read-out: MSSA MIC (UCL)): > 32 µg/mL

c1ccc(-c2nc3ccccn3c2N2CCOCC2)nc1 [compound 850]
MRSA MIC [1]: > 32 µg/mL
VRE MIC [3]: > 32 µg/mL

COc1ccn2c(Nc3cccc(F)c3)c(-c3cn(C)cn3)nc2c1 [OSA_000848]
MIC ([1]; UCL, read-out: MRSA MIC (UCL)): > 32 µg/mL
MIC ([3]; read-out: VRE MIC (UCL)): > 32 µg/mL

CC(C)CN(c1ccc(F)cc1)c1c(-c2ccccn2)nc2ccncn12 [compound 1039]
MIC ([1]; read-out: MRSA MIC): > 32 µg/mL
MIC ([2]; read-out: MSSA MIC): > 32 µg/mL

c1ccn2c(NC3CCCC3)c(-c3nccs3)nc2c1 [compound 845]
MRSA MIC [1]: > 32 µg/mL
VRE MIC [3]: > 32 µg/mL

c1ccc(-c2nc3ncccn3c2-c2ccc3occc3c2)nc1 [OSA_000863]
MIC ([1]; UCL, read-out: MRSA MIC (UCL)): > 32 µg/mL
MIC ([3]; read-out: VRE MIC (UCL)): > 32 µg/mL

COc1ccn2c(Nc3ccc(F)cn3)c(-c3ccccn3)nc2c1 [OSA_000839]
MIC ([1]; UCL, read-out: MRSA MIC (UCL)): 16 µg/mL (≈ 47.7 µM)
MIC ([3]; read-out: VRE MIC (UCL)): > 32 µg/mL

CC(=O)c1ccc(-c2c(-c3ccccn3)nc3n2CCC3)cc1 [compound 973]
activity against MRSA, in words [1]: not tolerated
MIC ([1]; read-out: MRSA MIC): > 32 µg/mL
MIC ([3]; read-out: VRE MIC): > 32 µg/mL

N#Cc1ccc(-c2c(-c3ccccn3)nc3cccnn23)cc1 [compound 1103]
MRSA MIC [1]: > 32 µg/mL
MSSA MIC [2]: > 32 µg/mL

CN(c1ccc(F)cc1)c1c(-c2ccccn2)nc2c(F)cccn12 [compound 1006]
MIC ([1]; 16 h, read-out: MRSA MIC): > 32 µg/mL
MIC ([2]; 16 h, read-out: MSSA MIC): > 32 µg/mL

N#Cc1ccc(C(=O)Nc2c(-c3ccccn3)nc3ccccn23)cc1 [OSA_001016]
MIC ([1]; UCL, read-out: MRSA MIC (UCL)): > 32 µg/mL
MIC ([2]; read-out: MSSA MIC (UCL)): > 32 µg/mL

CC(C)CN(c1ccc(F)cc1)c1c(-c2ccccn2)nc2cc(F)ccn12 [compound 1023]
MRSA MIC [1]: 8 µg/mL
MSSA MIC [2]: 4 µg/mL

Fc1ccc(Nc2c(-c3ccc[nH]3)nc3ccccn23)cc1 [OSA_001009]
MIC ([1]; UCL, read-out: MRSA MIC (UCL)): > 32 µg/mL
MIC ([2]; read-out: MSSA MIC (UCL)): > 32 µg/mL

COc1cccc(-c2nc3ccccn3c2N(CC(C)C)c2ccc(F)cc2)n1 [compound 1025]
MRSA MIC [1]: > 32 µg/mL
MSSA MIC [2]: > 32 µg/mL

CC(C)CN(c1ccc(F)cc1)c1c(-c2nccs2)nc2ccccn12 [OSA_001010]
MIC ([1]; UCL, read-out: MRSA MIC (UCL)): > 32 µg/mL
MIC ([2]; read-out: MSSA MIC (UCL)): > 32 µg/mL

CC(C)CN(c1ccc(F)cc1)c1c(-c2ccccn2)nc2ccc(S(C)(=O)=O)cn12 [compound 1037]
MRSA MIC [1]: > 32 µg/mL
MSSA MIC [2]: > 32 µg/mL

[2H]C([2H])([2H])N(c1ccc(F)cc1)c1c(-c2ccccn2)nc2ccccn12 [compound 1002]
MIC ([1]; read-out: MRSA MIC): 16 µg/mL (≈ 49.8 µM)
MIC ([2]; read-out: MSSA MIC): 16 µg/mL (≈ 49.8 µM)

CN(c1ccc(F)cc1)c1c(-c2ccccn2)nc2cccc(F)n12 [compound 1005]
MIC ([1]; read-out: MRSA MIC): 32 µg/mL (≈ 95.1 µM)
MIC ([2]; read-out: MSSA MIC): 32 µg/mL (≈ 95.1 µM)
